Data taken from ChEMBL document CHEMBL1201862, “PubChem BioAssay data set” (2004).
Each block holds one compound with its values, some of them ahead of it. Calls of active or inactive are those of the source.

What was measured:
[1] = biological target: T1, Zinc finger protein mex-5 (Caenorhabditis elegans, UniProt Q9XUB2); assay: potency of MEX-5 RNA-binding blockers – biochemical, C. elegans, fluorescence polarization, dose response (AID 1960)
T1 sequence (Q9XUB2 whole entry): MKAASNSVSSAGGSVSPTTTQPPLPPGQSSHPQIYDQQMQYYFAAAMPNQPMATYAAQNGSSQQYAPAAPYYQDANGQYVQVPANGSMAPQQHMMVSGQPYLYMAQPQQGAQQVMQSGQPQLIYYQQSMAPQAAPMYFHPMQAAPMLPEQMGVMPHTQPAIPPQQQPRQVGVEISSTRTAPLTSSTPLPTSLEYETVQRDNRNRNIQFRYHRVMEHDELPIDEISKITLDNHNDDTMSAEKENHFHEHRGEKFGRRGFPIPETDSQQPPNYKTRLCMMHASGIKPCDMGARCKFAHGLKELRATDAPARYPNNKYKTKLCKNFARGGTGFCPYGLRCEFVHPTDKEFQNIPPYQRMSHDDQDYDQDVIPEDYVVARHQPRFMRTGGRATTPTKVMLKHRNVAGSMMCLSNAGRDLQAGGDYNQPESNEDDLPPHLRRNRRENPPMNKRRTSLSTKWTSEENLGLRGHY

[2] = biological target: T2, 1-phosphatidylinositol 4,5-bisphosphate phosphodiesterase gamma-1 (Homo sapiens, UniProt P19174); assay: Counterscreen for inhibitors of phospholipase C isozymes (PLC-B3): Fluorescence-based biochemical high throughput dose response assay to identify inhibitors of phospholipase C isozymes (PLC-gamma1).
T2 sequence (P19174 whole entry): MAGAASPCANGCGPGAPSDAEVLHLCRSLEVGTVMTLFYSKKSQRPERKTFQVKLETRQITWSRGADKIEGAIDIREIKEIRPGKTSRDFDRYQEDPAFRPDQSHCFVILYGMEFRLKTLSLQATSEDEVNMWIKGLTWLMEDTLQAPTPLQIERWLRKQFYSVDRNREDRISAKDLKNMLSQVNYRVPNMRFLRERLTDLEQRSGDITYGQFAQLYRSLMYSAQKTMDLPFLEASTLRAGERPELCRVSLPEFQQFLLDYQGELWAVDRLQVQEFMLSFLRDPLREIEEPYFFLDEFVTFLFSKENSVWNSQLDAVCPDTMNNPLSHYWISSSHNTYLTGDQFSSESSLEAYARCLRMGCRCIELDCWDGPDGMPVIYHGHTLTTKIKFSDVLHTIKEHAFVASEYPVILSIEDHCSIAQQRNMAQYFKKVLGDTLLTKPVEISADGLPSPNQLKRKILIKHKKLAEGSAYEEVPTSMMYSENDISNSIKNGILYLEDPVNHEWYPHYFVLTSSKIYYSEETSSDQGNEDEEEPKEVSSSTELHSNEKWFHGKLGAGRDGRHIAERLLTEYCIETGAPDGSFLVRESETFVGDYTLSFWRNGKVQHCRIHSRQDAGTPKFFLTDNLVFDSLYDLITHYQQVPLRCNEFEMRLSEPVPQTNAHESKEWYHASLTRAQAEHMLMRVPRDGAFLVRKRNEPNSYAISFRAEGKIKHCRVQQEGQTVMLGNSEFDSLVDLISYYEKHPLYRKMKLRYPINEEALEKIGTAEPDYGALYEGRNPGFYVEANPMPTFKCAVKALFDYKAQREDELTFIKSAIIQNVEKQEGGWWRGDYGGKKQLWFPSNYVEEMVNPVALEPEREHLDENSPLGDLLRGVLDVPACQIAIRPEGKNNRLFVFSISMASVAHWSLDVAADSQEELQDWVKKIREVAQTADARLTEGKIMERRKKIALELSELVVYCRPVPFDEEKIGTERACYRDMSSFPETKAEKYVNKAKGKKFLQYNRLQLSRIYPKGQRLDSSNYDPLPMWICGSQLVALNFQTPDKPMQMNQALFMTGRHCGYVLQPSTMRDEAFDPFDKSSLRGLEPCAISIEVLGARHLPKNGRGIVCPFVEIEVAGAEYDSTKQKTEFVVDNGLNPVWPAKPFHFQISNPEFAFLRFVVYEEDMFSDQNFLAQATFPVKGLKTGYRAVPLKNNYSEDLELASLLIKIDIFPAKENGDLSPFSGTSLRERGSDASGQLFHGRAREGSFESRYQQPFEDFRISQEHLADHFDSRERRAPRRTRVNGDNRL

[3] = biological target: RAC-alpha serine/threonine-protein kinase (Homo sapiens, UniProt P31749); format: functional;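 note: AKT1 affinity measured as one member of a kinome-wide kinase profiling panel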
[4] = biological target: Cyclin-dependent kinase 7 (Homo sapiens, UniProt P50613); format: functional;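 note: value comes from a kinome-wide kinase profiling panel in which CDK7 is one member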
Chain of Cyclin-dependent kinase 7 (P50613 whole entry): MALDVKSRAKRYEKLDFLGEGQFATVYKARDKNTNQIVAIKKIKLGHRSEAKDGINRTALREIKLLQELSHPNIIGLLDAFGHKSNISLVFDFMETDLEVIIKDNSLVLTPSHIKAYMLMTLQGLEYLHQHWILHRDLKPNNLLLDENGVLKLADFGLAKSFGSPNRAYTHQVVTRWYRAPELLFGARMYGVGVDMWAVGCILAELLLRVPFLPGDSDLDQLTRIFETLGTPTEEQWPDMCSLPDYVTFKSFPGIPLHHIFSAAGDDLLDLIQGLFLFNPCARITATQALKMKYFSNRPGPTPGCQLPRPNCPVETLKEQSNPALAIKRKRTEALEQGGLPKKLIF

[5] = biological target: Inhibitor of nuclear factor kappa-B kinase subunit epsilon (Homo sapiens, UniProt Q14164); assay: Navigating the Kinome. Panel member name: IKBKE; format: functional
Chain of Inhibitor of nuclear factor kappa-B kinase subunit epsilon (Q14164 whole entry): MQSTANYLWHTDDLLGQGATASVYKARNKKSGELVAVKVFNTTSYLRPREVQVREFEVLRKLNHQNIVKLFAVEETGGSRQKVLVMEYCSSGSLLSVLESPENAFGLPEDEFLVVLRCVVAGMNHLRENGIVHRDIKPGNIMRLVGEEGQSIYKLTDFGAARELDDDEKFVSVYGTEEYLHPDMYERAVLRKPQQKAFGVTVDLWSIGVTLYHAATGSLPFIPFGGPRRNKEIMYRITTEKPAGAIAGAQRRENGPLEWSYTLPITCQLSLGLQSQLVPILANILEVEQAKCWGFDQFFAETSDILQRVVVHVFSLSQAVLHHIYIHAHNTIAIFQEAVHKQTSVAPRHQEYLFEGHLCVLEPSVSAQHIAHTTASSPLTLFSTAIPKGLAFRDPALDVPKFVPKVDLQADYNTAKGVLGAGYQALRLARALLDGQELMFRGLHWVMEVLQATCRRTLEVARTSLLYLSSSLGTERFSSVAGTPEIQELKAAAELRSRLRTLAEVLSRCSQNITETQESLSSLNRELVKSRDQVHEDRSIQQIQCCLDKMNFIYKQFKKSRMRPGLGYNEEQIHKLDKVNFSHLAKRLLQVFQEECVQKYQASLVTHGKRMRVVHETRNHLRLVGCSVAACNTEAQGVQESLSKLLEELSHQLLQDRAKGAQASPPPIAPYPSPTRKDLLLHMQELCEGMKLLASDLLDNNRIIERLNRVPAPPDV

[6] = biological target: Calcium/calmodulin-dependent protein kinase type II subunit beta (Homo sapiens, UniProt Q13554); format: functional
[7] = biological target: Interleukin-1 receptor-associated kinase 1 (Homo sapiens, UniProt P51617); format: functional;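 note: IRAK1 tested as one member of a kinome panel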
[8] = biological target: Protein kinase C zeta type (Homo sapiens, UniProt Q05513); format: functional;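 note: measured as one member of a broad kinase profiling panel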
[9] = biological target: 5'-AMP-activated protein kinase catalytic subunit alpha-1 (Homo sapiens, UniProt Q13131); format: functional
[10] = biological target: Insulin-like growth factor 1 receptor (Homo sapiens, UniProt P08069); assay: Navigating the Kinome. Panel member name: IGF1R; format: functional
Chain of Insulin-like growth factor 1 receptor (P08069 31-736 limits assumed): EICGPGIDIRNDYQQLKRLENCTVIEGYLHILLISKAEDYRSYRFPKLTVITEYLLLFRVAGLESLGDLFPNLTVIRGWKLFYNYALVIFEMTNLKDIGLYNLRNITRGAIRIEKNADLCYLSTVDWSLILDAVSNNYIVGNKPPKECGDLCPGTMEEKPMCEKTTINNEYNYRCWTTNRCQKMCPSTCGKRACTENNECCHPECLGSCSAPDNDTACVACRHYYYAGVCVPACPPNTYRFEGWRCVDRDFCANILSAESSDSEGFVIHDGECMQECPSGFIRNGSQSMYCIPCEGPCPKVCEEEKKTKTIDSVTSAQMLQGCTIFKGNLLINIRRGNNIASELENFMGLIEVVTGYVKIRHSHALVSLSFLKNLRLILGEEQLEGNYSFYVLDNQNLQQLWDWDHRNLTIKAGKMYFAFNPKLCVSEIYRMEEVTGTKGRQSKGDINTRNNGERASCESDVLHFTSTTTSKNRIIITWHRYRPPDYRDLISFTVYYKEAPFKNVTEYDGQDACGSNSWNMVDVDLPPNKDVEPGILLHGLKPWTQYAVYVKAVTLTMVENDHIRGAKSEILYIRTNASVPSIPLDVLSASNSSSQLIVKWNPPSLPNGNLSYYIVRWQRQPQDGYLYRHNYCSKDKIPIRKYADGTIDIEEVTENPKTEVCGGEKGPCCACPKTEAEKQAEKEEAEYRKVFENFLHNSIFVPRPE
Chain of Insulin-like growth factor 1 receptor (P08069 741-1367 limits assumed): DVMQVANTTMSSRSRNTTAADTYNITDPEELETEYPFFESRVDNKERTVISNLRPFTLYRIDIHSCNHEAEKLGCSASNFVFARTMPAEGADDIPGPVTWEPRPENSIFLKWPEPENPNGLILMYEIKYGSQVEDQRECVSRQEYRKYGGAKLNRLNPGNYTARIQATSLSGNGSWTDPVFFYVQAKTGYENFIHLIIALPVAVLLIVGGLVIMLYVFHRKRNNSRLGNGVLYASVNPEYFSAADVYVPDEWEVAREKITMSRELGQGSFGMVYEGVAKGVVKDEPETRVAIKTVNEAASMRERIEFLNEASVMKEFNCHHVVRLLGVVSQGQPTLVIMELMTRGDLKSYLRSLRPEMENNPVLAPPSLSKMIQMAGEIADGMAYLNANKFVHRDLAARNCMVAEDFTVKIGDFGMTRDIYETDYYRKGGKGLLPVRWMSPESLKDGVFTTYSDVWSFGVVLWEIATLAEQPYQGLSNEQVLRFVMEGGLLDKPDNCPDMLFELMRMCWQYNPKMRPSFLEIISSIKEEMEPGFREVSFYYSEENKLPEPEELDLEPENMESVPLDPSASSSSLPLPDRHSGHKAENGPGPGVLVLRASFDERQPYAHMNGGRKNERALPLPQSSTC

[11] = biological target: Serine/threonine-protein kinase DCLK1 (Homo sapiens, UniProt O15075); format: functional;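 note: affinity for DCLK1 (listed as DCAMKL1) measured as one member of a kinome-wide kinase profiling panel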
Chain of Serine/threonine-protein kinase DCLK1 (O15075 whole entry): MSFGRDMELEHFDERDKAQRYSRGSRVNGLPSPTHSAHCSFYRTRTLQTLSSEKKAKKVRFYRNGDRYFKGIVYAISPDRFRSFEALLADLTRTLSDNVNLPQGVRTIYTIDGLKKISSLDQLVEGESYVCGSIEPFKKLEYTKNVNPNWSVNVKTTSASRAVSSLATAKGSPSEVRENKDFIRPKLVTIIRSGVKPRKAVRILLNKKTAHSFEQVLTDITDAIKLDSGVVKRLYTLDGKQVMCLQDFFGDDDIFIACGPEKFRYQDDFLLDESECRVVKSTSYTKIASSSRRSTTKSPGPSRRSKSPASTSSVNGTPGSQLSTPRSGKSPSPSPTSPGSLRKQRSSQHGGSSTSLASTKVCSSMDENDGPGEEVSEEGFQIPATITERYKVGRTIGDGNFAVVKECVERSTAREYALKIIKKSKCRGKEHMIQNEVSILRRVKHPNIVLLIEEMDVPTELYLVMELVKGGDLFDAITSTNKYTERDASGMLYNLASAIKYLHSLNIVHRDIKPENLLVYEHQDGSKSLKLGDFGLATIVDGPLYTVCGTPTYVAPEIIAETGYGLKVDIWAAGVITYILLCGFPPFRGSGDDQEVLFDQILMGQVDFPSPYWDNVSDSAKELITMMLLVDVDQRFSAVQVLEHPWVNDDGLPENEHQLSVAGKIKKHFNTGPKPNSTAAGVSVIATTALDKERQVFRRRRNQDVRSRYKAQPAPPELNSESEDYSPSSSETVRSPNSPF

[12] = biological target: Casein kinase II subunit alpha (Homo sapiens, UniProt P68400); format: functional
[13] = biological target: Serine/threonine-protein kinase Nek4 (Homo sapiens, UniProt P51957); format: functional
Chain of Serine/threonine-protein kinase Nek4 (P51957 whole entry): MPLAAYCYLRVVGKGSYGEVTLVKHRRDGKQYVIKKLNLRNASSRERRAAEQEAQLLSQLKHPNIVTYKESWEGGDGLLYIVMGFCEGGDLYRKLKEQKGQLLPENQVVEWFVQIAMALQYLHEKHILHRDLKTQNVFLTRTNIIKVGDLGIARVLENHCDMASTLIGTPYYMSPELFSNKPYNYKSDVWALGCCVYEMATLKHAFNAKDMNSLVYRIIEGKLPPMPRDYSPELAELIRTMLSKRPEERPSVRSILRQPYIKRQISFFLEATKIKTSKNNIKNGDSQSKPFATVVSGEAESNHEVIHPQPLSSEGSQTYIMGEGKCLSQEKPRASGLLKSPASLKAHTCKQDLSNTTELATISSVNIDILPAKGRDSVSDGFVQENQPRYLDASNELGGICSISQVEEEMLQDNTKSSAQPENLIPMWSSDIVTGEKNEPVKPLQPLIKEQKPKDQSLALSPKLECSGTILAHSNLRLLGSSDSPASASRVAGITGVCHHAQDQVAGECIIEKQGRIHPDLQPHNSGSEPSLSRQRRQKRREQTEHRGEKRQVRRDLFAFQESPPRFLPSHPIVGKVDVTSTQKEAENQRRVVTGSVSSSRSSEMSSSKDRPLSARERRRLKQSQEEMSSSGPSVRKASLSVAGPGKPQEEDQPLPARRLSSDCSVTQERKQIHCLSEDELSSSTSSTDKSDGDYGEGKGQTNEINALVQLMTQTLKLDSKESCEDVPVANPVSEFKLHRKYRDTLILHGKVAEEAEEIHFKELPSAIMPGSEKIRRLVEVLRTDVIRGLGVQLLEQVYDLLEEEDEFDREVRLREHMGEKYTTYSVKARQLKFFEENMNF

[14] = biological target: Serine/threonine-protein kinase MRCK alpha (Homo sapiens, UniProt Q5VT25); format: functional
[15] = biological target: High affinity nerve growth factor receptor (Homo sapiens, UniProt P04629); format: functional;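 note: NTRK1 tested as one member of a kinome-wide profiling panel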
[16] = biological target: Mitogen-activated protein kinase 8 (Homo sapiens, UniProt P45983); format: functional;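 note: value comes from one member of a kinome-wide kinase profiling panel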
[17] = biological target: Receptor-type tyrosine-protein kinase FLT3 (Homo sapiens, UniProt P36888); format: functional;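 note: FLT3 was tested as one member of a kinome-wide kinase panel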
[18] = biological target: Dual specificity tyrosine-phosphorylation-regulated kinase 3 (Homo sapiens, UniProt O43781); format: functional;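 note: measured as one member of a broad kinase panel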
[19] = biological target: ALK tyrosine kinase receptor (Homo sapiens, UniProt Q9UM73); format: functional;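 note: ALK tested as one member of a kinase panel screen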
[20] = biological target: Cell division cycle 7-related protein kinase (Homo sapiens, UniProt O00311); format: functional;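 note: value obtained from a kinome-wide kinase panel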
Chain of Cell division cycle 7-related protein kinase (O00311 whole entry, canonical isoform): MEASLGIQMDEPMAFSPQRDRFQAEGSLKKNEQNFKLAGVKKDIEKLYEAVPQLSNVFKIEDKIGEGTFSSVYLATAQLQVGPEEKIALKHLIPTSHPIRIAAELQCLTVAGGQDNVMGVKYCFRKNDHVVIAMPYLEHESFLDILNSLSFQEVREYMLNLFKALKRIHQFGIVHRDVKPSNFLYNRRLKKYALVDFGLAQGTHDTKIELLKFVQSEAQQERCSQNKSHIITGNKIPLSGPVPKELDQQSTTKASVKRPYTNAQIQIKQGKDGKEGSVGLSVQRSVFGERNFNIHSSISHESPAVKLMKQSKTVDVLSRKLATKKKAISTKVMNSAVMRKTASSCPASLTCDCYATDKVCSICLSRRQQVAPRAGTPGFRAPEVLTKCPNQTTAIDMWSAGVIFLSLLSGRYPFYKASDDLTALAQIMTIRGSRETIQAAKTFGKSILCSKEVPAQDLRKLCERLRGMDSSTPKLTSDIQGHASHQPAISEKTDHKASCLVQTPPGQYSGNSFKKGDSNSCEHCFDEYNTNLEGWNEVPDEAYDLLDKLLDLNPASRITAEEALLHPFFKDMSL

[21] = biological target: Phosphorylase b kinase gamma catalytic chain, liver/testis isoform (Homo sapiens, UniProt P15735); format: functional;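 note: PHKG2 measured as one member of a kinome-wide kinase panel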
Chain of Phosphorylase b kinase gamma catalytic chain, liver/testis isoform (P15735 whole entry, canonical isoform): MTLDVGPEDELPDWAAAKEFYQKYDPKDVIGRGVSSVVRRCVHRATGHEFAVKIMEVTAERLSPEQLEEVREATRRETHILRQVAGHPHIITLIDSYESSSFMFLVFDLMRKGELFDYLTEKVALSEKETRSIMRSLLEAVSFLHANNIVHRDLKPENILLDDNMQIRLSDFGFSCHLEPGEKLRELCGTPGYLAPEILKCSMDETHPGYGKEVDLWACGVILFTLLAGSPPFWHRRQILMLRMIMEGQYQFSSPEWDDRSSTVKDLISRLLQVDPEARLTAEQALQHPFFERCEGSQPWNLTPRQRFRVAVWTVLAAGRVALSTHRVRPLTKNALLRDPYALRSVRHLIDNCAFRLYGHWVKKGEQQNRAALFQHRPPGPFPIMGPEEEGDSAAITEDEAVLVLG

Structure (SMILES): Cc1ccc(/C=C2/C(=O)c3ccc(C(=O)O)cc3C2=O)o1
EC50 [1]: 63600 nM (active)
IC50 [2]: > 122000 nM (inactive)

Ki [3]: 2000 nM (active)
Ki [4]: > 6310 nM (inactive)
Ki [5]: > 3160 nM (inactive)
Ki [6]: 3160 nM (active)
Ki [7]: 2510 nM (active)
Ki [8]: 1260 nM (active)
Ki [9]: > 2000 nM (inactive)
Ki [10]: > 2000 nM (inactive)
Ki [11]: > 10000 nM (inactive)
Ki [12]: 251 nM (active)
Ki [13]: 2510 nM (active)
Ki [14]: 39.8 nM (active)
Ki [15]: > 2510 nM (inactive)
Ki [16]: 2510 nM (active)
Ki [17]: > 2000 nM (inactive)
Ki [18]: 100 nM (active)
Ki [19]: > 3980 nM (inactive)
Ki [20]: 2 nM (active)
Ki [21]: > 5010 nM (inactive)
Structure (SMILES): Clc1cc(NC2CCCCC2)nc(-c2c[nH]c3ncccc23)n1
